Test results as given in patent US11312713B2, “Imidazo[4,5-C]quinoline derivatives as LRRK2 inhibitors” (Pfizer Inc., priority 2017, dated 2022).

target: LRRK2, WT (GST-tagged truncated LRRK2) (Homo sapiens, UniProt Q5S007); assay: LRRK2 kinase assay (LanthaScreen), wild type; type: biochemical; settings: LanthaScreen, LRRKtide substrate, 1 mM ATP
Experimental: LRRK2 kinase activity was measured using Lantha Screen technology from Invitrogen. GST-tagged truncated LRRK2 from Invitrogen (Cat #PV4874) was incubated with a fluorescein-labeled peptide substrate based upon ezrin/radixin/moesin (ERM), also known as LRRKtide (Invitrogen cat #PR8976A), in the presence of a dose response of compound. Upon completion, the assay was stopped and detected with a terbium labeled anti-phospho-ERM antibody (Invitrogen, cat #PR8975A). […] Using Echo acoustic dispensing, 60 nL of compound was transferred to a low volume Corning 384-well assay plate. 3 μL of a working solution of substrate (200 nM LRRKtide, 2 mM ATP) prepared in assay buffer (50 mM HEPES, pH 7.5, 3 mM MgCl2, with 2 mM DTT and 0.01% Brij35 added fresh) was added to the 60 nL compound assay plate. The kinase reaction was started with 3 μL of a working solution of LRRK2 enzyme at a concentration of 4 μg/m L. The final reaction concentrations were 100 nM LRRKtide, 1 mM ATP, 2 μg/mL LRRK2 enzyme and a compound dose response with a top dose of 3 μM. The reaction was allowed to progress at room temperature for 30 minutes and then stopped with the addition of 6 μL of detection buffer (20 mM Tris pH 7.6, 0.01% NP-40, 6 mM EDTA with 2 nM terbium labeled antiphospho-ERM). […] All final concentrations of substrate ATP and enzyme were the same.

Structure (SMILES) | IC50 [nM]
Cc1nc2cnc3ccc(Cl)cc3c2n1[C@H]1CCO[C@@H](CC#N)C1 (relative stereo) [enantiomer of Example 31, [cis-4-(8-chloro-2-methyl-1H-imidazo[4,5-c]quinolin-1-yl)tetrahydro-2H-pyran-2-yl]acetonitrile] | 1660
Cc1cnn(Cc2nc3cnc4ccc(Cl)cc4c3n2C2CN(C)CC2(F)F)n1 (stereo not drawn) [enantiomer of Example 87, 8-chloro-1-(4,4-difluoro-1-methylpyrrolidin-3-yl)-2-[(4-methyl-2H-1,2,3-triazol-2-yl)methyl]-1H-imidazo[4,5-c]quinoline] | 37.8
Cc1cc(Cc2nc3cnc4ccc(Cl)cc4c3n2[C@H]2CCO[C@@H](C(F)F)C2)no1 (relative stereo) [enantiomer of Example 59, 8-chloro-1-[cis-2-(difluoromethyl)tetrahydro-2H-pyran-4-yl]-2-[(5-methyl-1,2-oxazol-3-yl)methyl]-1H-imidazo[4,5-c]quinoline] | 631
Cc1cn(Cc2nc3cnc4ccc(Cl)cc4c3n2C2CN(C)CC2(F)F)nn1 (stereo not drawn) [enantiomer of Example 48, 8-chloro-1-(4,4-difluoro-1-methylpyrrolidin-3-yl)-2-[(4-methyl-1H-1,2,3-triazol-1-yl)methyl]-1H-imidazo[4,5-c]quinoline] | 145
COCc1cn(Cc2nc3cnc4ccc(Cl)cc4c3n2C2CCOCC2(F)F)nn1 (stereo not drawn) [enantiomer of Example 55, 8-chloro-1-(3,3-difluorotetrahydro-2H-pyran-4-yl)-2-{[4-(methoxymethyl)-1H-1,2,3-triazol-1-yl]methyl}-1H-imidazo[4,5-c]quinoline] | 15.3
Cc1nc(Cc2nc3cnc4ccc(C#N)cc4c3n2C2CN(C)CC2(F)F)no1 (stereo not drawn) [enantiomer of Example 32, 1-(4,4-difluoro-1-methylpyrrolidin-3-yl)-2-[(5-methyl-1,2,4-oxadiazol-3-yl)methyl]-1H-imidazo[4,5-c]quinoline-8-carbonitrile] | 473
COCc1cn(Cc2nc3cnc4ccc(F)cc4c3n2C2CN(C)CC2(F)F)nn1 (stereo not drawn) [enantiomer of Example 53, 1-(4,4-difluoro-1-methylpyrrolidin-3-yl)-8-fluoro-2-{[4-(methoxymethyl)-1H-1,2,3-triazol-1-yl]methyl}-1H-imidazo[4,5-c]quinoline] | 229
CN1CC(n2c(Cn3cnnn3)nc3cnc4ccc(Cl)cc4c32)C(F)(F)C1 (stereo not drawn) [enantiomer of Example 86, 8-chloro-1-(4,4-difluoro-1-methylpyrrolidin-3-yl)-2-(1H-tetrazol-1-ylmethyl)-1H-imidazo[4,5-c]quinoline] | 271
Cc1nc(Cc2nc3cnc4ccc(Cl)cc4c3n2C2CN(C)CC2(F)F)no1 (stereo not drawn) [enantiomer of Example 88, 8-chloro-1-(4,4-difluoro-1-methylpyrrolidin-3-yl)-2-[(5-methyl-1,2,4-oxadiazol-3-yl)methyl]-1H-imidazo[4,5-c]quinoline] | 261
FC1(F)COCCC1n1c(Cn2cncn2)nc2cnc3ccc(Cl)cc3c21 (centres unmarked) [Example 54, 8-chloro-1-(3,3-difluorotetrahydro-2H-pyran-4-yl)-2-(1H-1,2,4-triazol-1-ylmethyl)-1H-imidazo[4,5-c]quinoline] | 10.3

Now from value to compound:

IC50 [nM] | Structure (SMILES)
181 | Cc1cnc(Cc2nc3cnc4ccc(Cl)cc4c3n2C2CN(C)CC2(F)F)cn1 (stereo not drawn) [enantiomer of Example 50, 8-chloro-1-(4,4-difluoro-1-methylpyrrolidin-3-yl)-2-[(5-methylpyrazin-2-yl)methyl]-1H-imidazo[4,5-c]quinoline]
97.3 | CN1CC(n2c(Cn3cc(C4CC4)nn3)nc3cnc4ccc(Cl)cc4c32)C(F)(F)C1 (stereo not drawn) [enantiomer of Example 47, 8-chloro-2-[(4-cyclopropyl-1H-1,2,3-triazol-1-yl)methyl]-1-(4,4-difluoro-1-methylpyrrolidin-3-yl)-1H-imidazo[4,5-c]quinoline]
55.9 | Cc1nn2cc(Cc3nc4cnc5ccc(F)cc5c4n3C3CN(C)CC3(F)F)nc2s1 (stereo not drawn) [enantiomer of Example 85, 1-(4,4-difluoro-1-methylpyrrolidin-3-yl)-8-fluoro-2-[(2-methylimidazo[2,1-b][1,3,4]thiadiazol-6-yl)methyl]-1H-imidazo[4,5-c]quinoline]
46.2 | Cc1nnn(Cc2nc3cnc4ccc(Cl)cc4c3n2C2CN(C)CC2(F)F)n1 (stereo not drawn) [enantiomer of Example 49, 8-chloro-1-(4,4-difluoro-1-methylpyrrolidin-3-yl)-2-[(5-methyl-2H-tetrazol-2-yl)methyl]-1H-imidazo[4,5-c]quinoline]
37.2 | CC(C#N)Cc1nc2cnc3ccc(Cl)cc3c2n1[C@@H]1CCO[C@H](C)C1 (stereo partly drawn) [diastereomer of Example 78, 3-{8-chloro-1-[(2R,4R)-2-methyltetrahydro-2H-pyran-4-yl]-1H-imidazo[4,5-c]quinolin-2-yl}-2-methylpropanenitrile]
33.7 | Cc1nnc(Cc2nc3cnc4ccc(Cl)cc4c3n2C2CCOCC2(F)F)s1 (stereo not drawn) [enantiomer of Example 92, 8-chloro-1-(3,3-difluorotetrahydro-2H-pyran-4-yl)-2-[(5-methyl-1,3,4-thiadiazol-2-yl)methyl]-1H-imidazo[4,5-c]quinoline]
9.35 | FC1(F)COCCC1n1c(Cn2cc(C3CC3)nn2)nc2cnc3ccc(Cl)cc3c21 (stereo not drawn) [enantiomer of Example 94, 8-chloro-2-[(4-cyclopropyl-1H-1,2,3-triazol-1-yl)methyl]-1-(3,3-difluorotetrahydro-2H-pyran-4-yl)-1H-imidazo[4,5-c]quinoline]
7.54 | Fc1ccc2ncc3nc(Cc4csnn4)n([C@H]4CC[C@@H](F)C4)c3c2c1 (relative stereo) [enantiomer of Example 79, 8-fluoro-1-[cis-3-fluorocyclopentyl]-2-(1,2,3-thiadiazol-4-ylmethyl)-1H-imidazo[4,5-c]quinoline]

same assay, conditions: wild type LRRK2; LanthaScreen, LRRKtide substrate

IC50 [nM] | Structure (SMILES)
1530 | CCc1nc2cnc3ccc(Cl)cc3c2n1[C@H]1CCO[C@@H](CC#N)C1 [Example 2, [(2R,4S)-4-(8-Chloro-2-ethyl-1H-imidazo[4,5-c]quinolin-1-yl)tetrahydro-2H-pyran-2-yl]acetonitrile]
1790 | N#CCC1CC(n2c(C3CCC3)nc3cnc4ccc(Cl)cc4c32)CCO1 (stereo not drawn) [Example 10, [cis-4-(8-Chloro-2-cyclobutyl-1H-imidazo[4,5-c]quinolin-1-yl)tetrahydro-2H-pyran-2-yl]acetonitrile]
10.3 | FC1(F)COCCC1n1c(Cn2cncn2)nc2cnc3ccc(Cl)cc3c21 (centres unmarked) [Example 54, 8-chloro-1-(3,3-difluorotetrahydro-2H-pyran-4-yl)-2-(1H-1,2,4-triazol-1-ylmethyl)-1H-imidazo[4,5-c]quinoline]
2.62 | Cc1nn2cc(Cc3nc4cnc5ccc(F)cc5c4n3C3CN(C)CC3(F)F)nc2s1 (centres unmarked) [Example 85, 1-(4,4-difluoro-1-methylpyrrolidin-3-yl)-8-fluoro-2-[(2-methylimidazo[2,1-b][1,3,4]thiadiazol-6-yl)methyl]-1H-imidazo[4,5-c]quinoline]

Structure (SMILES) | IC50 [nM]
Cc1cnn(Cc2nc3cnc4ccc(C#N)cc4c3n2C2CN(C)CC2(F)F)n1 (single isomer, unassigned) [Example 3, 1-(4,4-Difluoro-1-methylpyrrolidin-3-yl)-2-[(4-methyl-2H-1,2,3-triazol-2-yl)methyl]-1H-imidazo[4,5-c]quinoline-8-carbonitrile] | 31.8
